The test system of the assay is Plasmodium falciparum. In words: Growth inhibition of chloroquine-resistant Plasmodium falciparum K1 by [3H]hypoxanthine uptake. In kind it is functional, organism-based.
In general, IC50 refers to the point on the concentration scale where inhibition reaches its midpoint. Substance “1-ferrocenyl-3-(4-Cyanophenyl)-2-propen-1-one” showed a half-inhibitory concentration (IC50) of 26.5 µM.
As for “1-(2-Hydroxyphenyl)-3-ferrocenyl-2-propen-1-one”, the figure is 73.5 µM.
In the case of “1-ferrocenyl-3-(4-Trifluoromethylphenyl)-2-propen-1-one” it was 58.4 µM; in that of “1-ferrocenyl-3-(1-Naphthalenyl)-2-propen-1-one”, 48.3 µM; in that of “1-(3-pyridyl)-3-ferrocenyl-2-propen-1-one”, 4.6 µM.
As for “1-ferrocenyl-3-(4-Methoxyphenyl)-2-propen-1-one”, 17 µM corresponded to half-maximal inhibition (IC50).
In turn, “1-ferrocenyl-3-(4-Hydroxyphenyl)-2-propen-1-one” came in with an IC50 of 20.6 µM.
The substance “1-ferrocenyl-3-(4-Fluorophenyl)-2-propen-1-one” came in with an IC50 of 12.1 µM.
As to “1-ferrocenyl-3-(2-Naphthalenyl)-2-propen-1-one”, the midpoint of inhibition, the IC50, lay at 73.5 µM.
Take “1-ferrocenyl-3-(4-Methylphenyl)-2-propen-1-one”: the IC50 turned out to be 147 µM.
Substance “1-(4-Hydroxyphenyl)-3-ferrocenyl-2-propen-1-one” gave an IC50 of 36 µM.
In turn, “1-(4-Ethoxyphenyl)-3-ferrocenyl-2-propen-1-one” showed an IC50 of 200 µM.
Turning to “1-(2,4-Dimethoxyphenyl)-3-ferrocenyl-2-propen-1-one”, it took 24.5 µM to reach half-maximal inhibition (IC50).
Regarding 1-ferrocenyl-3-(phenyl)-2-propen-1-one, 19 µM corresponded to half-maximal inhibition (IC50).
The substance “1-ferrocenyl-3-(2,4-Difluorophenyl)-2-propen-1-one” displayed an IC50 of 23.2 µM.
As to “1-ferrocenyl-3-(3-pyridinyl)-2-propen-1-one”, the IC50 was 17 µM.
Regarding “1-(2,4-Dihydroxyphenyl)-3-ferrocenyl-2-propen-1-one”, the midpoint of inhibition, the IC50, lay at 31.5 µM.
1-(phenyl)-3-ferrocenyl-2-propen-1-one returned an IC50 of 175 µM.
Consider “1-(4-Methoxyphenyl)-3-ferrocenyl-2-propen-1-one”, for which the half-inhibitory concentration (IC50) came to 410 µM.
Consider “1-ferrocenyl-3-(4-Nitrophenyl)-2-propen-1-one”, for which the IC50 turned out to be 5.1 µM.
Consider “1-ferrocenyl-3-(2,4-Dichlorophenyl)-2-propen-1-one”, for which the IC50 was 29.4 µM.
Regarding “1-ferrocenyl-3-(3-Chlorophenyl)-2-propen-1-one”, half-maximal inhibition (IC50) required 36.2 µM.
Substance “1-ferrocenyl-3-(2,4-Dimethoxyphenyl)-2-propen-1-one” yielded a half-inhibitory concentration (IC50) of 18 µM.
Take “1-ferrocenyl-3-(4-Chlorophenyl)-2-propen-1-one”: the half-maximal inhibitory concentration (IC50) came to 14.5 µM.
As for “1-(2,3,4-Trimethoxyphenyl)-3-ferrocenyl-2-propen-1-one”, the figure is 22.5 µM; as for “1-ferrocenyl-3-(2-Chlorophenyl)-2-propen-1-one”, 42.4 µM; as for “1-ferrocenyl-3-(3-Quinolinyl)-2-propen-1-one”, 18.2 µM.
The substance “1-(1-Naphthalenyl)-3-ferrocenyl-2-propen-1-one” displayed an IC50 of 47.4 µM.
Turning to “1-ferrocenyl-3-(4-Quinolinyl)-2-propen-1-one”, the IC50 came out at 14 µM.
As for “1-(2-Naphthalenyl)-3-ferrocenyl-2-propen-1-one”, the figure is 21 µM.
“1-(4-Butoxyphenyl)-3-ferrocenyl-2-propen-1-one” came in with an IC50 of 80 µM.
